Assays:
Test in all cases: selective drug sensitivity score (sDSS, relative to normal bone marrow) (sDSS (score)); higher = more potent and effective on the cell line relative to normal bone marrow cells
Settings in all cases: 72 h
[1] = system: 380
[2] = system: ALL-SIL
[3] = system: COG-LL-319h
[4] = system: COG-LL-394h
[5] = system: DND-41
[6] = system: HAL-01
[7] = system: HPB-ALL
[8] = system: JURKAT
[9] = system: KASUMI-10
[10] = system: KASUMI-9
[11] = system: LC4-1
[12] = system: MHH-CALL-3
[13] = system: MN-60
[14] = system: MOLT-14
[15] = system: NALL-1
[16] = system: P12-ICHIKAWA
[17] = system: P30-OHKUBO
[18] = system: RCH-ACV
[19] = system: SEM cells
[20] = system: TANOUE
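Further: ALL cell lines in 384-well plates, five doses spanning 10,000-fold, each plate scaled between vehicle and 100 µmol/L benzalkonium chloride controls, sDSS an adapted area-under-curve metric.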

| SMILES | selective drug sensitivity score [1] | selective drug sensitivity score [2] | selective drug sensitivity score [3] | selective drug sensitivity score [4] | selective drug sensitivity score [5] | selective drug sensitivity score [6] | selective drug sensitivity score [7] | selective drug sensitivity score [8] | selective drug sensitivity score [9] | selective drug sensitivity score [10] | selective drug sensitivity score [11] | selective drug sensitivity score [12] | selective drug sensitivity score [13] | selective drug sensitivity score [14] | selective drug sensitivity score [15] | selective drug sensitivity score [16] | selective drug sensitivity score [17] | selective drug sensitivity score [18] | selective drug sensitivity score [19] | selective drug sensitivity score [20] |
| --- | --- | --- | --- | --- | --- | --- | --- | --- | --- | --- | --- | --- | --- | --- | --- | --- | --- | --- | --- | --- |
| CCCCCOC(=O)Nc1nc(=O)n([C@@H]2O[C@H](C)[C@@H](O)[C@H]2O)cc1F [Capecitabine] (top concentration 10000 nM) | -0.06 | -0.06 | -0.06 | -0.06 | 1.84 | 0.44 | 0.64 | -0.06 | -0.06 | -0.06 | -0.06 | -0.06 | -0.06 | -0.06 | -0.06 | -0.06 | -0.06 | -0.06 | 0.04 | -0.06 |
| Nc1nc(Cl)nc2c1ncn2[C@H]1C[C@H](O)[C@@H](CO)O1 [Cladribine] (top concentration 1000 nM) | 7.56 | 9.36 | 7.76 | -16 | 1.16 | -0.14 | -9.34 | -10.7 | 5.26 | 7.76 | 6.26 | 11.7 | -6.44 | 5.66 | 1.86 | -5.24 | 8.06 | 5.76 | 3.96 | -16 |
| CCN(CC)CCOc1ccc(/C(=C(/Cl)c2ccccc2)c2ccccc2)cc1 [Clomifene] (top concentration 10000 nM) | 1.42 | 0.12 | -0.48 | -0.08 | 1.62 | 4.32 | -0.78 | -1.28 | -1.78 | 1.72 | 4.62 | 6.52 | -0.18 | -0.28 | 1.22 | 0.32 | 3.22 | 3.22 | 2.32 | -2.98 |
| CO[C@@H](C(=O)N1Cc2[nH]nc(NC(=O)c3ccc(N4CCN(C)CC4)cc3)c2C1)c1ccccc1 [Danusertib] (top concentration 10000 nM) | 22.4 | 22.8 | 19 | 2.64 | -1.36 | -2.56 | 5.54 | -0.96 | 13.8 | 15.5 | 19.9 | 13.8 | -0.36 | 15.5 | 13.5 | 21.7 | 20 | 17.9 | 19.2 | -9.16 |
| CC[C@@](C)(Nc1ccnc(-c2c[nH]c3ncccc23)n1)C(=O)NCC(F)(F)F [Decernotinib] (top concentration 10000 nM) | 2.56 | -2.44 | -3.94 | -3.94 | -2.64 | -3.94 | -3.94 | -3.94 | -3.84 | -3.74 | -3.94 | -1.94 | -3.94 | -3.94 | -3.94 | -3.94 | -3.94 | -3.14 | -2.74 | -3.94 |
| CN1CCN(c2ccc3nc(-c4c(N)c5c(F)cccc5[nH]c4=O)[nH]c3c2)CC1 [Dovitinib] (top concentration 10000 nM) | -0.14 | -0.14 | -0.14 | 1.36 | 0.16 | -0.14 | -0.14 | -0.14 | 6.46 | 0.56 | 0.06 | -0.14 | -0.14 | 0.46 | -0.14 | -0.14 | 0.36 | 0.46 | 10.1 | -0.14 |
| CC(C)(O)CNc1nc(Nc2ccnc(C(F)(F)F)c2)nc(-c2cccc(C(F)(F)F)n2)n1 [Enasidenib] (top concentration 10000 nM) | -0.8 | 1.8 | 2 | 1.7 | 0.4 | -0.8 | -0.5 | -0.7 | -0.8 | -0.8 | 3.9 | 0.8 | -0.8 | -0.8 | -0.8 | 0.2 | 1.2 | 2.2 | 2.3 | -0.8 |
| CN1CCN(c2ccc(C(=O)Nc3n[nH]c4ccc(Cc5cc(F)cc(F)c5)cc34)c(NC3CCOCC3)c2)CC1 [Entrectinib] (top concentration 1000 nM) | -1.2 | -0.6 | -1.2 | 0.2 | -1.2 | 0 | -1.2 | -1.2 | 3.2 | -1.1 | -1.2 | -1.2 | -1.2 | -0.7 | -0.3 | -1.2 | -1.1 | -1.2 | 3.5 | -1.2 |
| CNC(=O)c1ccc(N2C(=S)N(c3ccc(C#N)c(C(F)(F)F)c3)C(=O)C2(C)C)cc1F [Enzalutamide] (top concentration 10000 nM) | -0.82 | -0.82 | 1.58 | -0.32 | 1.58 | -0.82 | 8.28 | 1.18 | -0.82 | -0.82 | 0.28 | -0.82 | -0.22 | -0.02 | -0.82 | -0.42 | -0.52 | -0.72 | -0.82 | -0.32 |

Source: the supplement of paper PMC8967900
